The text below walks through data of ChEMBL document CHEMBL1137759, “Design, parallel synthesis, and crystal structures of biphenyl antithrombotics as selective inhibitors of tissue factor FVIIa complex. Part 1: Exploration of S2 pocket pharmacophores” (Bioorg Med Chem, 2009).

The structures appear in SMILES notation.

Experiment [1] addresses Prothrombin (Homo sapiens, UniProt P00734). In words: Inhibition of thrombin.
Experiment [2] deals with Coagulation factor X (Homo sapiens, UniProt P00742).
Sequence of Coagulation factor X (P00742 41-179 limits assumed): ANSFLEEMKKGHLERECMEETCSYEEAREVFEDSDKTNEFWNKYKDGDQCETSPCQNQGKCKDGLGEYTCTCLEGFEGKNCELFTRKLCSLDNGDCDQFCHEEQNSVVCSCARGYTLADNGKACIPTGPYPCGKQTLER
Sequence of Coagulation factor X (P00742 235-488 limits assumed): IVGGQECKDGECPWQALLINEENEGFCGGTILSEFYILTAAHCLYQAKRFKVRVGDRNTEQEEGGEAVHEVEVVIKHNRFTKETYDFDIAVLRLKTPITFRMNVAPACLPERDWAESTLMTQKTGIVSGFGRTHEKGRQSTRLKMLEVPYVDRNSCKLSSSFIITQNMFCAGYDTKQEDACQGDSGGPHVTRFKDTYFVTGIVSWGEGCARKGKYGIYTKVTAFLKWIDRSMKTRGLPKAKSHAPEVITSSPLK
Experiment [3] concerns the target Plasminogen (Homo sapiens, UniProt P00747). In words: Inhibition of plasmin.
Experiment [4] can be described thus: Selectivity ratio of IC50 for tissue factor/factor 7a to IC50 for trypsin.
Experiment [5] deals with Coagulation factor VII/tissue factor (Homo sapiens, UniProt P08709). As to the kind of experiment: Inhibition of tissue factor/factor 7a. It counts as protein-complex assay.
Sequence of Coagulation factor VII/tissue factor (P08709 61-212 limits assumed): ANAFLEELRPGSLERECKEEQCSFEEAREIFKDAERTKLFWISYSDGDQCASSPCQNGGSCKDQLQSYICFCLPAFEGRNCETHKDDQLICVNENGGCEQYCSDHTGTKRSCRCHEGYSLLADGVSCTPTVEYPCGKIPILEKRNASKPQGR
Sequence of Coagulation factor VII/tissue factor (P08709 213-466 limits assumed): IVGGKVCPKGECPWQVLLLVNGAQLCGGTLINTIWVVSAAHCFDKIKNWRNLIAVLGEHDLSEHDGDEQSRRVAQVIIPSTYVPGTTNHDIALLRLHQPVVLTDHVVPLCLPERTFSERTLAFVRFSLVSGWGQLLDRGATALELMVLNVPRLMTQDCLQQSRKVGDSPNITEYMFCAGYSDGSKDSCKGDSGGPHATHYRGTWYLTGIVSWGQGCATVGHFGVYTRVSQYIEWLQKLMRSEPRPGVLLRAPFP
Sequence of Coagulation factor VII/tissue factor (P13726 33-295 partner limits assumed): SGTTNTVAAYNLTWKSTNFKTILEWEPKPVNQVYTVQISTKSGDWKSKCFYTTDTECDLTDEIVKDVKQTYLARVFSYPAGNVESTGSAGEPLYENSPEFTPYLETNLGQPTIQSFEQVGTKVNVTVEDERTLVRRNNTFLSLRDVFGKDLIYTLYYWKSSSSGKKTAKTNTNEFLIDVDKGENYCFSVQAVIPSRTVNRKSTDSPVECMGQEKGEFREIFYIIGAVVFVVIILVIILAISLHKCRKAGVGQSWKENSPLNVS

Sequence of Plasminogen (P00747 97-580 limits assumed): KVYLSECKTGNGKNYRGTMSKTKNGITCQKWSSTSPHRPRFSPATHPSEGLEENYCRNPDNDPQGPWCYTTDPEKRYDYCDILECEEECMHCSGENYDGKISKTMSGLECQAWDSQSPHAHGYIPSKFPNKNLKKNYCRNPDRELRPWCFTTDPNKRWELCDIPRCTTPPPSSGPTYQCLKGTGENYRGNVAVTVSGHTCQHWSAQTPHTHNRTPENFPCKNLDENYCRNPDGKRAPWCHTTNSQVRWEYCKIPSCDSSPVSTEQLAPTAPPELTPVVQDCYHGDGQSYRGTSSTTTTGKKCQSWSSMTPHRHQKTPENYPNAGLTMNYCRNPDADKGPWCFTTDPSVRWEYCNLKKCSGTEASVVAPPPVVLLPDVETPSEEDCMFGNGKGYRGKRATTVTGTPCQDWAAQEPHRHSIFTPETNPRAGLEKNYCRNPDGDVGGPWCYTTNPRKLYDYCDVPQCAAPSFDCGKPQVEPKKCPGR
Sequence of Plasminogen (P00747 581-810 limits assumed): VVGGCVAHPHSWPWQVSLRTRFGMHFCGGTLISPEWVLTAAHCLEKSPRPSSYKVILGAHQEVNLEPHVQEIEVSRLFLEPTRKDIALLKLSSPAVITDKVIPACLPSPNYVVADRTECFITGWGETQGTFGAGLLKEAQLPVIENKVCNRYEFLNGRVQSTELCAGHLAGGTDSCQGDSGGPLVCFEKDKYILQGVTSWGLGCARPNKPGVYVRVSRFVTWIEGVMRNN

`CC(C)CNC(=O)c1ccc(-c2ccc(-c3cocc3CO)cc2C(=O)Nc2ccc(C(=N)N)cc2)c(C(=O)O)c1`: the IC50 – broadly, the concentration needed to halve the response being measured – in experiment [1] is over 50000 nM; in experiment [2] it was 230 nM; in experiment [3], 554 nM; in experiment [5] it was 20 nM. The Ratio IC50 in experiment [4] came to 114.

As for `C=C(CCO)c1ccc(-c2ccc(C(=O)NCC(C)C)cc2C(=O)O)c(C(=O)Nc2ccc(C(=N)N)cc2)c1`, the IC50 was found to be 56200 nM in experiment [1], 11300 nM in experiment [2], 358 nM in experiment [3] and 29 nM in experiment [5]. The Ratio IC50 in experiment [4] was found to be 75.5.

Consider `CC(C)CNC(=O)c1ccc(-c2ccc(-c3cscc3CN)cc2C(=O)Nc2ccc(C(=N)N)cc2)c(C(=O)O)c1`, for which the IC50 in experiment [1] was 110000 nM; in experiment [2] it was 10 nM; in experiment [3], 229 nM; in experiment [5], 33 nM. In addition, the Ratio IC50 in experiment [4] worked out at 54.2.

Take `CC(C)CNC(=O)c1ccc(-c2ccc(O)cc2C(=O)Nc2ccc(C(=N)N)cc2)c(C(=O)O)c1`: the IC50 was determined as 50000 nM in experiment [1], 50000 nM in experiment [2] and 67 nM in experiment [5]. Also, in experiment [4], the Ratio IC50 was found to be 5.7.

`CC(C)CNC(=O)c1ccc(-c2ccc(C#CCO)cc2C(=O)Nc2ccc(C(=N)N)cc2)c(C(=O)O)c1` gave an IC50 in experiment [5] of 320 nM.

On to `C=C(CO)c1ccc(-c2ccc(C(=O)NCC(C)C)cc2C(=O)O)c(C(=O)Nc2ccc(C(=N)N)cc2)c1`, for which the concentration for half-maximal inhibition (IC50) is 39700 nM in experiment [1], 7100 nM in experiment [2], 810 nM in experiment [3] and 12 nM in experiment [5]. The Ratio IC50 in experiment [4] came out at 295.

As to `CCc1ccc(-c2ccc(C(=O)NCC(C)C)cc2C(=O)O)c(C(=O)Nc2ccc(C(=N)N)cc2)c1`, the IC50 is 12300 nM in experiment [1], 50000 nM in experiment [2], over 5000 nM in experiment [3] and 97 nM in experiment [5]. Further, in experiment [4], the Ratio IC50 was 61.8.

Take `CC(C)CNC(=O)c1ccc(-c2ccc(-c3ccoc3CO)cc2C(=O)Nc2ccc(C(=N)N)cc2)c(C(=O)O)c1`: the IC50 in experiment [1] was over 50000 nM; in experiment [2], 20 nM; in experiment [3] it was 457 nM; in experiment [5], 8 nM. Besides, the Ratio IC50 in experiment [4] worked out at 92.5.

As for `CC(C)CNC(=O)c1ccc(-c2ccc(-c3ccoc3)cc2C(=O)Nc2ccc(C(=N)N)cc2)c(C(=O)O)c1`, the IC50 came out at 16100 nM in experiment [1], 120 nM in experiment [2], 252 nM in experiment [3] and 11 nM in experiment [5]. Besides, the Ratio IC50 in experiment [4] is 42.6.

Regarding `CC(C)CNC(=O)c1ccc(-c2ccc(-c3cscc3CN=[N+]=[N-])cc2C(=O)Nc2ccc(C(=N)N)cc2)c(C(=O)O)c1`, the IC50 in experiment [1] was 157000 nM; in experiment [2], 50 nM; in experiment [3], 242 nM; in experiment [5], 9 nM. Further, the Ratio IC50 in experiment [4] is 133.

For the compound `CC(C)CNC(=O)c1ccc(-c2ccc(C#CCCO)cc2C(=O)Nc2ccc(C(=N)N)cc2)c(C(=O)O)c1`, the IC50 in experiment [1] came out at 17900 nM; in experiment [2] it was 59000 nM; in experiment [5] it was 500 nM. The Ratio IC50 in experiment [4] turned out to be 0.8.

For `C=Cc1ccc(-c2ccc(C(=O)NCC(C)C)cc2C(=O)O)c(C(=O)Nc2ccc(C(=N)N)cc2)c1`, the IC50 in experiment [1] stood at 9400 nM; in experiment [2] it was 1650 nM; in experiment [5], 9 nM. Besides, the Ratio IC50 in experiment [4] is 52.2.

Take `CCCc1ccc(-c2ccc(C(=O)NCC(C)C)cc2C(=O)O)c(C(=O)Nc2ccc(C(=N)N)cc2)c1`: the IC50 in experiment [1] was 39600 nM; in experiment [2], 46000 nM; in experiment [3], over 5000 nM; in experiment [5], 92 nM. Also, in experiment [4], the Ratio IC50 is 450.

In the case of `CC(C)CNC(=O)c1ccc(-c2ccc(C#CC(C)(C)O)cc2C(=O)Nc2ccc(C(=N)N)cc2)c(C(=O)O)c1`, in experiment [5], the IC50 was found to be 926 nM.

As to `CC(C)CNC(=O)c1ccc(-c2ccc(-c3sccc3CO)cc2C(=O)Nc2ccc(C(=N)N)cc2)c(C(=O)O)c1`, the IC50 in experiment [1] was found to be 50000 nM; in experiment [2] it was 640 nM; in experiment [5] it was 330 nM. Besides, the Ratio IC50 in experiment [4] amounted to 13.3.

The compound `CC(C)CNC(=O)c1ccc(-c2ccc(CN=[N+]=[N-])cc2C(=O)Nc2ccc(C(=N)N)cc2)c(C(=O)O)c1` yielded an IC50 in experiment [5] of 60 nM.

With `CC(C)CNC(=O)c1ccc(-c2ccc(C(O)CO)cc2C(=O)Nc2ccc(C(=N)N)cc2)c(C(=O)O)c1` (stereo unspecified), the IC50 in experiment [5] worked out at 1610 nM.

In experiment [5], `CC(C)CNC(=O)c1ccc(-c2ccc(CN)cc2C(=O)Nc2ccc(C(=N)N)cc2)c(C(=O)O)c1` returned an IC50 of 1220 nM.

On to `CC(C)CNC(=O)c1ccc(-c2ccc(-c3cccs3)cc2C(=O)Nc2ccc(C(=N)N)cc2)c(C(=O)O)c1`, for which the IC50 in experiment [1] turned out to be 8020 nM; in experiment [2] it was 150 nM; in experiment [5], 10 nM. The Ratio IC50 in experiment [4] worked out at 16.

With `C=C(C)/C=C\c1ccc(-c2ccc(C(=O)NCC(C)C)cc2C(=O)O)c(C(=O)Nc2ccc(C(=N)N)cc2)c1`, the values for the IC50 in experiment [2] and in experiment [5] were 310 nM and 130 nM, respectively.

Consider `CC(C)CNC(=O)c1ccc(-c2ccc(-c3ccc[nH]3)cc2C(=O)Nc2ccc(C(=N)N)cc2)c(C(=O)O)c1`, for which the figures for the IC50 in experiment [1], in experiment [2] and in experiment [5] were 19900 nM, 50 nM and 14 nM, respectively. The Ratio IC50 in experiment [4] was determined as 30.7.

On to `CC(C)CNC(=O)c1ccc(-c2ccccc2C(=O)Nc2ccc(C(=N)N)cc2)c(C(=O)O)c1`, for which the IC50 was found to be 64000 nM in experiment [1], 103000 nM in experiment [2] and 120 nM in experiment [5]. In addition, the Ratio IC50 in experiment [4] was found to be 1.5.

As to `CC(C)CNC(=O)c1ccc(-c2ccc(-c3ccccc3)cc2C(=O)Nc2ccc(C(=N)N)cc2)c(C(=O)O)c1`, the IC50 was found to be 11800 nM in experiment [1], 350 nM in experiment [2] and 98 nM in experiment [5]. Also, the Ratio IC50 in experiment [4] turned out to be 4.3.

In turn, `CC(C)CNC(=O)c1ccc(-c2ccc(-c3ccc(CO)s3)cc2C(=O)Nc2ccc(C(=N)N)cc2)c(C(=O)O)c1` came in with an IC50 in experiment [5] of 650 nM.

On to `C=C=Cc1ccc(-c2ccc(C(=O)NCC(C)C)cc2C(=O)O)c(C(=O)Nc2ccc(C(=N)N)cc2)c1`, for which the IC50 in experiment [1] stood at 28000 nM; in experiment [2], 1500 nM; in experiment [5], 9 nM. The Ratio IC50 in experiment [4] was 59.8.

`CC(C)CNC(=O)c1ccc(-c2ccc(-c3ccncc3)cc2C(=O)Nc2ccc(C(=N)N)cc2)c(C(=O)O)c1`: the figures for the IC50 in experiment [1], in experiment [2] and in experiment [5] were 35400 nM, 19400 nM and 231 nM, respectively. Besides, the Ratio IC50 in experiment [4] is 5.3.

As to `CC(C)CNC(=O)c1ccc(-c2ccc(C=CCO)cc2C(=O)Nc2ccc(C(=N)N)cc2)c(C(=O)O)c1`, the results for the IC50 in experiment [1], in experiment [2] and in experiment [5] were 22700 nM, 6620 nM and 52 nM, respectively. Moreover, the Ratio IC50 in experiment [4] amounted to 34.

`CC(C)CNC(=O)c1ccc(-c2ccc(-c3ccsc3C(=O)O)cc2C(=O)Nc2ccc(C(=N)N)cc2)c(C(=O)O)c1` returned an IC50 in experiment [5] of 190 nM.

In the case of `CC(C)CNC(=O)c1ccc(-c2ccc(-c3cccn3C)cc2C(=O)Nc2ccc(C(=N)N)cc2)c(C(=O)O)c1`, the figures for the IC50 in experiment [1], in experiment [2] and in experiment [5] were 86900 nM, 50 nM and 76 nM, respectively. In addition, the Ratio IC50 in experiment [4] worked out at 5.4.

Regarding `CC(C)CNC(=O)c1ccc(-c2ccc(-c3cccnc3)cc2C(=O)Nc2ccc(C(=N)N)cc2)c(C(=O)O)c1`, the IC50 is 50000 nM in experiment [1], 36500 nM in experiment [2] and 546 nM in experiment [5]. In addition, in experiment [4], the Ratio IC50 worked out at 5.5.
